Here are results for 2 molecules from US8486991B2, “Enantiomerically pure phosphoindoles as HIV inhibitors” (Idenix Pharmaceuticals, Inc., priority 2006, dated 2013).

The structures appear in SMILES notation.

For data set [1], the target named is CYP3A4 (Homo sapiens, UniProt P08684). Briefly: Recombinant CYP450 inhibition, fluorometric, CYP3A4. Type of data set: in vitro ADME. Set-up: from tissue; host or cells: pooled human liver microsomes. As to the method: (§1) Compounds were assayed using recombinant human microsomal proteins with fluorometric substrates. Signal was measured with a Fusion plate reader utilizing the appropriate excitation and emission wavelength set to detect the specific metabolite: […]

Data set [2] can be described thus: In vitro half-life in liver microsomes, monkey. The note with it: microsomes, up to one hour, n=1. In kind it is in vitro ADME. As to the method: (§2) In vitro metabolism was assessed using liver microsomes for all species. Compounds were incubated at 1 μM with liver microsomes for up to one hour. Reported half-lives greater than the total incubation time are extrapolated values. Extracts were assayed for disappearance of parent compound by LC-MS/MS detection.
(§3) Data represents one independent experiment conducted.
(In general: Liver microsomes are a subcellular fraction often used to study metabolism.)

Data set [3] in a line: In vitro half-life in liver microsomes, dog. Type of data set: in vitro ADME. The note with it: microsomes, up to one hour, longer half-lives are extrapolated, n=1. As to the method: as §2, §3
Data set [4] in a line: In vitro half-life in liver microsomes, rat. In kind it is in vitro ADME. The note with it: microsomes, up to one hour, longer half-lives are extrapolated, n=1. As to the method: as §2, §3
Data set [5] in a line: In vitro half-life in liver microsomes, human. In kind it is in vitro ADME. The following applies: microsomes, up to one hour, longer half-lives are extrapolated, n=1. As to the method:
as §2, §3

In data set [6] the target is CYP2C9 (Homo sapiens, UniProt P11712). Put plainly: Recombinant CYP450 inhibition, Luciferin-H, CYP2C9. Type of data set: in vitro ADME. More on the design: from tissue; host or cells: pooled human liver microsomes. The note with it: highest concentration tested 10 μM. As to the method: CYP2C9 inhibition was performed by incubating a luminogenic CYP450 substrate Luciferin-H with CYP2C9 and an NADPH regeneration system. Luminescence measured using a Fusion plate reader.

In data set [7] the test system is CYP3A4 (activation of PXR in DPX2 cells). Briefly: CYP3A4 induction screen in DPX2 cells. Type of data set: cell-based, human. The following applies: extent compared with rifampicine, mifepristone, androstanol. From the text:
The potential for in vitro induction of CYP3A4 was screened in DPX2 cells. The DPX2 cell line is a derivative of a human hepatocellular carcinoma cell line (HepG2) transformed with the human pregnane x receptor (PXR) and a reporter gene vector containing the enhancer region of CYP3A4. The potential for in vitro induction of CYP1A2 was screened in CYP1A2-DRE cells. The CYP1A2-DRE cell line is a stably transformed HepG2 cells with dioxin response elements (DRE) and reporter gene containing CYP1A2 promoter elements. The extent of CYP3A4 induction was determined by comparing the activation of PXR obtained with test article to that obtained with rifampicine (potent inducer), mifepristone (moderate inducer) and androstanol (weak inducer). The extent of CYP1A2 induction was determined by comparing the activation of the aryl hydrocarbon receptor (AhR) obtained with test article to that obtained with TCDD (potent inducer), omeprazole (moderate inducer), and 2-acetylaminofluorene (weak inducer).

Data set [8] has as its target CYP2D6 (Homo sapiens, UniProt P10635). Briefly: Recombinant CYP450 inhibition, fluorometric, CYP2D6. In kind it is in vitro ADME. Set-up: from tissue; host or cells: pooled human liver microsomes. The note with it: recombinant enzyme, read-out: percentage of inhibition at the highest concentration tested, CYP2D6. As to the method:
as §1

Sequence of CYP3A4 (P08684 whole entry, the tested form may be a part): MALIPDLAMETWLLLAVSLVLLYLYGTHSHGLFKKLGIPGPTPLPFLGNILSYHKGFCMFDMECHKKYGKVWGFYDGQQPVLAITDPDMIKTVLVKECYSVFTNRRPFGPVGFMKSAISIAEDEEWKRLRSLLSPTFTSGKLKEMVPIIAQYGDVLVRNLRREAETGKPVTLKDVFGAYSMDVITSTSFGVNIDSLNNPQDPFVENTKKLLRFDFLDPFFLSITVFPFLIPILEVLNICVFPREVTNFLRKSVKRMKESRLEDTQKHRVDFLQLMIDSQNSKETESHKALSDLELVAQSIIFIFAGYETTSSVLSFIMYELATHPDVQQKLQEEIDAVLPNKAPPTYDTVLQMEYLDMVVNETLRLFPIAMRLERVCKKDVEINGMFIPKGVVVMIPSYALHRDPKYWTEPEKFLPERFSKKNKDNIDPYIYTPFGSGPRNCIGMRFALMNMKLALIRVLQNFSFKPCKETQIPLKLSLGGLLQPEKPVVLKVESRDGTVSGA
Sequence of CYP2C9 (P11712 whole entry, the tested form may be a part): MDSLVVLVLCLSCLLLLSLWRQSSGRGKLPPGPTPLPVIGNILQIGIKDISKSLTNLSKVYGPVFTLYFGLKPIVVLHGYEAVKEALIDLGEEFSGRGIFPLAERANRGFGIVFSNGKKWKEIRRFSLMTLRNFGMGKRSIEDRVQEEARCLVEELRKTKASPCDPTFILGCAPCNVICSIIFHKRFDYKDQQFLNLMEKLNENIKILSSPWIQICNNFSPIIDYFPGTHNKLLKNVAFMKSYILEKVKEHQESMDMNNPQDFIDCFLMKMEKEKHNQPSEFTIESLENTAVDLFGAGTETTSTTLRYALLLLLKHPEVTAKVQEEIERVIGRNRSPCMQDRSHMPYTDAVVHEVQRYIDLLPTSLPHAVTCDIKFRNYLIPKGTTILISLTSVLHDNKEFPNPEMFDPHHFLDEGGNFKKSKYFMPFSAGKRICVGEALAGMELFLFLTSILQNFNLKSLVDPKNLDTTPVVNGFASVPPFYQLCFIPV
Sequence of CYP2D6 (P10635 whole entry): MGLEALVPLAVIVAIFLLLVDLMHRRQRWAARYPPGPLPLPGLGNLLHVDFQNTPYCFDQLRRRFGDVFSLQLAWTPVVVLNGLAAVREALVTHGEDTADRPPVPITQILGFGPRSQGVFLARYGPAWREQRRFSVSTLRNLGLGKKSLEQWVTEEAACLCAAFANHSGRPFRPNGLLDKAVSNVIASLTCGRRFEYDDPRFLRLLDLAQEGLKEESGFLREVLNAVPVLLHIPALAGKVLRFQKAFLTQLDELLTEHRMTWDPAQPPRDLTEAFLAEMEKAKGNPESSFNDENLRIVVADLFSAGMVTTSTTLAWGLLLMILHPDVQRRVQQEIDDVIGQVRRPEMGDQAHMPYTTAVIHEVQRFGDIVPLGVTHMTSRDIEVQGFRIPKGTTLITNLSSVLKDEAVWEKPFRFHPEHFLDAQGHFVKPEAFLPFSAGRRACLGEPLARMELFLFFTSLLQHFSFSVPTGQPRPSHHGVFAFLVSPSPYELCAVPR

In the case of `COP(=O)(c1cc(C)cc(/C=C/C#N)c1)c1c(C(N)=O)[nH]c2ccc(Cl)c(F)c12` (racemic) [rac (I + II), 5-chloro-4-fluoro-3-[methyl 3-((E)-2-cyanovinyl)-5-methylphenyl]phosphinoyl-1H-indole-2-carboxamide], the IC50 (as a rule, the concentration that gives 50% inhibition) in data set [1] worked out at 1610 nM. The half-life (in general, how long it takes for the measured level to halve) at 1 μM in data set [2] is 0.307 h; in data set [3], 4.78 h; in data set [4] it was 2.43 h; in data set [5], 1.92 h.
For `COP(=O)(c1cc(C)cc(/C=C/C#N)c1)c1c(C(N)=O)[nH]c2ccc(Cl)cc12` (racemic) [rac (III + IV), 5-chloro-3-[methyl 3-((E)-2-cyanovinyl)-5-methylphenyl]phosphinoyl-1H-indole-2-carboxamide], the 50% inhibitory concentration (IC50) in data set [6] stood at 5990 nM; in data set [1] it was 2270 nM. Further, the half-life at 1 μM in data set [2] was 0.272 h; in data set [3], 4.28 h; in data set [4], 1.75 h; in data set [5], 1.52 h. Moreover, in data set [7], the “Induction, DPX2 (CYP3A4)” value is on record as “Moderate (n = 1)”. Also, in data set [8], the inhibition at 10 µM lay within 16 to 23%.
